Measured values published in patent US8247211B2, “Glycopeptide antibiotics” (American Cyanamid Company, priority 2001, dated 2012).
Values after ≈ are worked out from the molar mass of the structure shown.

Legend:
Assay in all cases: In vitro antibacterial evaluation: minimum inhibitory concentration (MIC), broth dilution method
Assay type in all cases: cell-based
Staphylococcus sp. = conditions: 18 hours at 35° C.
Method in brief: (§1)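 First, organisms are seeded at 5×10^5 CFU/mL into Muller-Hinton II […]. Next, antibiotic is applied across 64-0.06 μg/mL by broth dilution (NCCLS M7-A2). Finally, the lowest inhibitory concentration is recorded as MIC.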

Escherichia coli [1] = tested on: Escherichia coli
Method in brief: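 Values are minimum inhibitory concentrations, meaning the smallest antibiotic concentration that stops growth of the organism. They come from broth dilution in Muller-Hinton II […] per NCCLS guidance (M7-A2), using 5×10^5 CFU/mL and concentrations from 64 to 0.06 μg/mL.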

Streptococcus sp. = conditions: 18 hours at 35° C.
Method in brief: as §1

Enterococcus sp. = tested on: Enterococcus sp.
Method in brief: as §1

Escherichia coli [2] = tested on: Escherichia coli; remark: listed apart in the source

- MIC Coagulase Negative Staphylococcus (GC 4547) (Staphylococcus sp.; Coagulase Negative Staphylococcus (GC 4547)): 8 mg/L (≈ 5.72 µM)
- MIC Coagulase Negative Staphylococcus (GC 4548) (Staphylococcus sp.; Coagulase Negative Staphylococcus (GC 4548)): 4 mg/L (≈ 2.86 µM)
- MIC Coagulase Negative Staphylococcus (GC 4549) (Staphylococcus sp.; Coagulase Negative Staphylococcus (GC 4549)): 4 mg/L (≈ 2.86 µM)
- MIC Coagulase Negative Staphylococcus (GC 4551) (Staphylococcus sp.; Coagulase Negative Staphylococcus (GC 4551)): 8 mg/L (≈ 5.72 µM)
- MIC Staphylococcus aureus (ATCC 29213) (Staphylococcus sp.; Staphylococcus aureus (ATCC 29213)): 8 mg/L (≈ 5.72 µM)
- MIC Staphylococcus aureus (GC 1131) (Staphylococcus sp.; Staphylococcus aureus (GC 1131)): 16 mg/L (≈ 11.4 µM)
- MIC Staphylococcus aureus (GC 4541) (Staphylococcus sp.; Staphylococcus aureus (GC 4541)): 16 mg/L (≈ 11.4 µM)
- MIC Staphylococcus aureus (GC 4542) (Staphylococcus sp.; Staphylococcus aureus (GC 4542)): 16 mg/L (≈ 11.4 µM)
- MIC Staphylococcus aureus (GC 4544) (Staphylococcus sp.; Staphylococcus aureus (GC 4544)): 8 mg/L (≈ 5.72 µM)
- MIC Staphylococcus aureus (GC 4545) (Staphylococcus sp.; Staphylococcus aureus (GC 4545)): 16 mg/L (≈ 11.4 µM)
- MIC Staphylococcus aureus-SMITH (GC 4543) (Staphylococcus sp.; Staphylococcus aureus-SMITH (GC 4543)): 8 mg/L (≈ 5.72 µM)
- MIC Escherichia coli (GC 4559) (Escherichia coli [1]; Escherichia coli (GC 4559)): >64 mg/L
- MIC Escherichia coli (GC 4560) (Escherichia coli [1]; Escherichia coli (GC 4560)): 4 mg/L (≈ 2.86 µM)
- MIC Streptococcus agalactiae (GC 4564) (Streptococcus sp.; Streptococcus agalactiae (GC 4564)): 8 mg/L (≈ 5.72 µM)
- MIC Streptococcus pyogenes (ID-3187) (Streptococcus sp.; Streptococcus pyogenes (ID-3187)): 4 mg/L (≈ 2.86 µM)
- MIC Enterococcus avium (GC 4558) (Enterococcus sp.; Enterococcus avium (GC 4558)): 64 mg/L (≈ 45.8 µM)
- MIC Enterococcus faecalis (ATCC 29212) (Enterococcus sp.; Enterococcus faecalis (ATCC 29212)): >64 mg/L
- MIC Enterococcus faecalis (GC 2242) (Enterococcus sp.; Enterococcus faecalis (GC 2242), 18 hours at 35° C.): 64 mg/L (≈ 45.8 µM)
- MIC Enterococcus faecalis (GC 4552) (Enterococcus sp.; Enterococcus faecalis (GC 4552), 18 hours at 35° C.): 64 mg/L (≈ 45.8 µM)
- MIC Enterococcus faecalis (GC 4553) (Enterococcus sp.; Enterococcus faecalis (GC 4553)): 64 mg/L (≈ 45.8 µM)
- MIC Enterococcus faecalis (GC 4554) (Enterococcus sp.; Enterococcus faecalis (GC 4554)): >64 mg/L
- MIC Enterococcus faecium (GC 2243) (Enterococcus sp.; Enterococcus faecium (GC 2243)): >64 mg/L
- MIC Enterococcus faecium (GC 4556) (Enterococcus sp.; Enterococcus faecium (GC 4556)): 64 mg/L (≈ 45.8 µM)
- MIC Enterococcus faecium (GC 4557) (Enterococcus sp.; Enterococcus faecium (GC 4557)): 16 mg/L (≈ 11.4 µM)
- MIC Escherichia coli (ATCC 25922) (Escherichia coli [2]): >64 mg/L
SMILES: CC(C)CC(=O)OC1C(OC2C(CO)OC(Oc3ccc(CC4NC(=O)C(C(C)c5ccc(F)cc5)NC(=O)CNC(=O)C(CO)NC(=O)C(C(O)C5CNC(=N)N5C5OC(CO)C(O)C(O)C5O)NC(=O)C(C(O)C5CNC(=N)N5)NC4=O)cc3)C(O)C2O)OC(CO)C(O)C1O (stereo not drawn) [Example 261b, Cyclo[glycyl-4-fluoro-β-methylphenylalanyl-O-[4-O-[2-O-(3-methylbutanoyl)hexopyranosyl]-hexopyranosyl]tyrosyl-3-(2-iminoimidazolidin-4-yl)seryl-3-(3-hexopyranosyl-2-imino-imidazolidin-4-yl)serylseryl]]
- MIC Staphylococcus haemolyticus (GC 4546) (Staphylococcus sp.; Staphylococcus haemolyticus (GC 4546)): 8 mg/L (≈ 5.72 µM)
